SMILES	log10 OH rate constant (cm³/molecule/s) (25.0 °C)	log10 OH rate constant (cm³/molecule/s) (24.0 °C)
COC(C)(C)C	-11.5	
CCCCCCCCCCCCCCC	-10.7	
C=CCl	-11.2	
C=CC/C=C/C	-10	
CCCCO	-11.1	
CCCCOCC	-10.7	
COP(=O)(OC)SC	-11	
C=C(C)[C@H]1CC=C(C)CC1	-9.77	
CC(C)=O	-12.7	
FC(Cl)C(F)(F)F (configuration not stated)	-14	
CC(F)(F)Cl	-14.5	
CC(C)O	-11.3	
CCCCCOC(C)=O	-11.1	
C=CC(=O)OCC	-10.8	
Cl/C=C\Cl	-11.6	
C#CCCCC	-10.9	
O=C1CCCC1	-11.5	
CCOP(=O)(OCC)OCC	-10.3	
CC1=CCC2CC1C2(C)C (configuration not stated)	-10.3	
C1CC1	-13.1	
CCCC(C)C	-11.3	
Clc1ccccc1-c1ccccc1	-11.5	
C[N+](=O)[O-]	-12.9	
ClCC(Cl)Cl	-12.7	
COP(=O)(OC)OC	-11.1	

SMILES	log10 OH rate constant (cm³/molecule/s) (25.0 °C)	log10 OH rate constant (cm³/molecule/s) (24.0 °C)
C1=CCCC1	-10.2	
FC(F)(Cl)CCl	-13.8	
CCc1ccccc1	-11.1	
COC(F)(F)F	-13.7	
CCCCCCO	-10.9	
FC(F)(F)C(Cl)Cl	-13.4	
CC(C)C(C)C(C)C	-11.2	
CO	-12	
CC(F)(F)C(F)(Cl)Cl	-14.6	
Cc1ccc(O)c(C)c1	-10.1	
C=CCCCOC(C)=O	-10.4	
CCCCOC	-10.8	
CCCCCCC(C)=O	-11	
CCCC(=O)OCC	-11.3	
Cc1cccc(O)c1C	-10.1	
CCCCCO	-11	
C=O	-11	
Cc1ccc(C)c(O)c1	-10.1	
COCCBr	-11.2	
CC=CCC	-10.2	
FC(C(F)C(F)(F)C(F)(F)F)C(F)(F)F (configuration not stated)	-14.5	
ClCCCl	-12.6	
FC(F)F	-15.5	
Fc1c(F)c(F)c(F)c(F)c1F	-12.8	
FC1C(F)(F)OC1(F)F	-14.6	

SMILES	log10 OH rate constant (cm³/molecule/s) (25.0 °C)	log10 OH rate constant (cm³/molecule/s) (24.0 °C)
C1=CCCCCC1	-10.1	
CCOC(=O)CC	-11.7	
CCOC(C)(C)C	-11.1	
CC(C)(C)CO	-11.3	
CCCO	-11.3	
O=[N+]([O-])OC1CCCCC1	-11.5	
COCCCl	-11.3	
C/C=C\C	-10.2	
CCOCCOC(=O)C(C)C	-10.9	
FCC(F)(F)F	-14.3	
CCCOC=O	-11.6	
Clc1cccc(-c2ccccc2)c1	-11.3	
CC1=CCC2C(C1)C2(C)C (configuration not stated)	-10.1	
C=CC#N	-11.4	
CCC#N	-12.7	
CCCOCCC	-10.7	
Clc1ccc(Cl)c(Cl)c1	-12.3	
CC(C)OC(C)C	-11	
CC(C)(C)OC=O	-12.1	
CC(Cl)(Cl)Cl	-14	
COP(=O)(SC)SC	-11	
C=CCC(=C)C	-10.1	
CCCC(=O)OC	-11.5	
CCC(C)=C(C)C	-9.99	
CC(Cl)Cl	-12.6	

SMILES	log10 OH rate constant (cm³/molecule/s) (25.0 °C)	log10 OH rate constant (cm³/molecule/s) (24.0 °C)
CCCOC(=O)CCC	-11.1	
COCC(Cl)Cl	-11.6	
CCCCCCCCCCC	-10.9	
CC(=O)Cl	-14	
CCC[N+](=O)[O-]	-12.4	
CCC1CO1 (configuration not stated)	-11.7	
ClCC(Cl)(Cl)Cl	-13.7	
C=CCCC	-10.5	
CC(C)(C)CO[N+](=O)[O-]	-12.1	
CCCCOC(C)=O	-11.3	
C=C(C)C(=O)OCCOCC	-10.6	
C=C(C)CCC	-10.2	
CCCCOCCCC	-10.5	
CCCCCOCCCCC	-10.5	
Cc1cccc(C)c1O	-10.2	
COC	-11.5	
CC(C)CCO[N+](=O)[O-]	-11.7	
C/C=C/C(C)C	-10.2	
CCOCCO	-10.8	
CCCC[N+](=O)[O-]	-11.8	
C=CCCC(=C)C	-10	
COC=O	-12.6	
CCCCCO[N+](=O)[O-]	-11.5	
Cc1ccc(O)cc1C	-10.1	
Nc1ccccc1	-9.95	

SMILES	log10 OH rate constant (cm³/molecule/s) (25.0 °C)	log10 OH rate constant (cm³/molecule/s) (24.0 °C)
CSSC		-9.64
C=CC	-10.6	
FC(F)OCC(F)(F)F	-13.9	
ClCC(Br)CBr (configuration not stated)	-12.4	
Cl/C=C\CCl	-11	
CCCOC(=O)CC	-11.4	
C=CCC	-10.5	
C=C(Cl)Cl	-11	
C1=CC2CCC1CC2	-10.4	
C1CC[C@H]2CCC[C@@H]2C1 (racemic)	-10.8	
FC(F)OC(F)(F)F	-14.5	
CCC=C(C)C	-10.1	
COCC(F)(F)F	-12.2	
CCCCOC=O	-11.5	
CC(=O)OC(C)(C)C	-12.3	
CCCOCCO	-10.7	
FCC(F)F	-13.7	
Cc1cc(C)cc(O)c1	-9.95	
CCOC=CC(=O)OCC	-10.5	
O=CCl	-12.5	
COC(=O)C(F)(F)F	-13.3	
CCCCCCCO	-10.9	

Source: the OPERA property sets (Mansouri et al. 2018)
